Tests used:
Assay in all cases: KINOMEscan scanMAX
Type in all cases: binding
Conditions in all cases: read-out: Percent Control
[1] = target: T1, LTK (Homo sapiens, UniProt P29376)
T1 construct: purchased Eurofins Discovery (DiscoverX KINOMEscan scanMAX)
Protocol: (§1) The kinome-wide binding assay was performed by Eurofins Discovery using the scanMAX screening platform. More information can be found on the Eurofins Discovery Web site.

[2] = target: T2, RPS6KA4(Kin.Dom.2-C-terminal) (Homo sapiens, UniProt O75676)
T2 construct: RPS6KA4(Kin.Dom.2-C-terminal); purchased Eurofins Discovery (DiscoverX KINOMEscan scanMAX)
T2 sequence (O75676 372-772 limits assumed): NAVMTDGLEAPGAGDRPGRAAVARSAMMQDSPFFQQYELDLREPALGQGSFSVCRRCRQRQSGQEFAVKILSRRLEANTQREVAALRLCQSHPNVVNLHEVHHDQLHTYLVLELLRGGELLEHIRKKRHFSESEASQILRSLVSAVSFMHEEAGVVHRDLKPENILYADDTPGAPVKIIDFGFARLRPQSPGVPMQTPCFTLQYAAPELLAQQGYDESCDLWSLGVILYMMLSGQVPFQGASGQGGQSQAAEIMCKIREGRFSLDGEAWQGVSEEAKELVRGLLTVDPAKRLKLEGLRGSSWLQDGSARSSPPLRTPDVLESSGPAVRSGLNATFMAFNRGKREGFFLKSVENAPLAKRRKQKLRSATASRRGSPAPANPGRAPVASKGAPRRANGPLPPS
Protocol: as §1

[3] = target: T3, CLK4 (Homo sapiens, UniProt Q9HAZ1)
T3 construct: purchased Eurofins Discovery (DiscoverX KINOMEscan scanMAX)
Protocol: as §1

[4] = target: T4, PRKD2 (Homo sapiens, UniProt Q9BZL6)
T4 construct: purchased Eurofins Discovery (DiscoverX KINOMEscan scanMAX)
T4 sequence (Q9BZL6 whole entry): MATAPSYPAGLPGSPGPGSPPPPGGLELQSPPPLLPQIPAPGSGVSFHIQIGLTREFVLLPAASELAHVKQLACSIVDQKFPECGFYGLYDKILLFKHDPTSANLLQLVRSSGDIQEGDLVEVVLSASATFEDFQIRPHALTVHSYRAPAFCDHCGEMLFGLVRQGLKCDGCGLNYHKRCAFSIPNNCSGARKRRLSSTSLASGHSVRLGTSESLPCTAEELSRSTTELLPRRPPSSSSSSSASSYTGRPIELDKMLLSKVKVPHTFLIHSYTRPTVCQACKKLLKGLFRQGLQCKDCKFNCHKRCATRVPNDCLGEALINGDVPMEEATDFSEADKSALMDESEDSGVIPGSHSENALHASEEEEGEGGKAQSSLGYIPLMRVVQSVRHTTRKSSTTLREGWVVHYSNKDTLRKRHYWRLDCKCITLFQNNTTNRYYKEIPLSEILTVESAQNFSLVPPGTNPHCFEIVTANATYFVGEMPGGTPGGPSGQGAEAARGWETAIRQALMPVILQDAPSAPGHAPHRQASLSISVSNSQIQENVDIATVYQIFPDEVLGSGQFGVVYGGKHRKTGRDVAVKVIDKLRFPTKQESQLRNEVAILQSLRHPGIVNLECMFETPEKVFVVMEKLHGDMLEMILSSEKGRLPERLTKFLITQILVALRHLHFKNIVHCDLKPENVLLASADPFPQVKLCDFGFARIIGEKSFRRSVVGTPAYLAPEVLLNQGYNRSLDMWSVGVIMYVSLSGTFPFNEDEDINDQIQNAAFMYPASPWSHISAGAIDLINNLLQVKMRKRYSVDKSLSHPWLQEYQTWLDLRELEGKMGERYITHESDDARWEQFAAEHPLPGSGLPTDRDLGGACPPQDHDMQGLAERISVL
Protocol: as §1

[5] = target: T5, MAST1 (Homo sapiens, UniProt Q9Y2H9)
T5 construct: purchased Eurofins Discovery (DiscoverX KINOMEscan scanMAX)
Protocol: as §1

[6] = target: T6, RPS6KA4(Kin.Dom.1-N-terminal) (Homo sapiens, UniProt O75676)
T6 construct: RPS6KA4(Kin.Dom.1-N-terminal); purchased Eurofins Discovery (DiscoverX KINOMEscan scanMAX)
Protocol: as §1

[7] = target: T7, CAMK1G (Homo sapiens, UniProt Q96NX5)
T7 construct: purchased Eurofins Discovery (DiscoverX KINOMEscan scanMAX)
T7 sequence (Q96NX5 whole entry): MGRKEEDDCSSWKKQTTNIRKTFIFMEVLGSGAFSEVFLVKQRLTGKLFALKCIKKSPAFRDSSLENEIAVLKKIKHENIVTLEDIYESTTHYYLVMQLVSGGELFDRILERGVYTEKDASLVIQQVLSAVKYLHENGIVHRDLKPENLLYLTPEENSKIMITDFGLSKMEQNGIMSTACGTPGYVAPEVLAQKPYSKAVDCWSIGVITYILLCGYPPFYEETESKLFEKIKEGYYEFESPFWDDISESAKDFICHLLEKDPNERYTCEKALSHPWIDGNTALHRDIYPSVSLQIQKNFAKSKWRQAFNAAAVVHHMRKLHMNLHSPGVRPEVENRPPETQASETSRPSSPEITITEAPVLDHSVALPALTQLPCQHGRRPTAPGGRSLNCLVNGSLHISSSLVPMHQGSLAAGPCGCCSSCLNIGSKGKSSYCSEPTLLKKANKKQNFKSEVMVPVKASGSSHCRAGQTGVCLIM
Protocol: as §1

[8] = target: T8, GRK4 (Homo sapiens, UniProt P32298)
T8 construct: purchased Eurofins Discovery (DiscoverX KINOMEscan scanMAX)
Protocol: as §1

[9] = target: T9, FGFR3 (Homo sapiens, UniProt P22607)
T9 construct: purchased Eurofins Discovery (DiscoverX KINOMEscan scanMAX)
Protocol: as §1

[10] = target: T10, SGK (Homo sapiens, UniProt O00141)
T10 construct: purchased Eurofins Discovery (DiscoverX KINOMEscan scanMAX)
Protocol: as §1

[11] = target: T11, MERTK (Homo sapiens, UniProt Q12866)
T11 construct: purchased Eurofins Discovery (DiscoverX KINOMEscan scanMAX)
Protocol: as §1

[12] = target: T12, EPHA5 (Homo sapiens, UniProt P54756)
T12 construct: purchased Eurofins Discovery (DiscoverX KINOMEscan scanMAX)
Protocol: as §1

[13] = target: T13, JAK1(JH2domain-pseudokinase) (Homo sapiens, UniProt P23458)
T13 construct: JAK1(JH2domain-pseudokinase); purchased Eurofins Discovery (DiscoverX KINOMEscan scanMAX)
Protocol: as §1

[14] = target: T14, PYK2 (Homo sapiens, UniProt Q14289)
T14 construct: purchased Eurofins Discovery (DiscoverX KINOMEscan scanMAX)
Protocol: as §1

[15] = target: T15, PIK3CA(H1047L) (Homo sapiens, UniProt P42336, H1047L)
T15 construct: purchased Eurofins Discovery (DiscoverX KINOMEscan scanMAX)
T15 sequence (P42336 whole entry H1047L): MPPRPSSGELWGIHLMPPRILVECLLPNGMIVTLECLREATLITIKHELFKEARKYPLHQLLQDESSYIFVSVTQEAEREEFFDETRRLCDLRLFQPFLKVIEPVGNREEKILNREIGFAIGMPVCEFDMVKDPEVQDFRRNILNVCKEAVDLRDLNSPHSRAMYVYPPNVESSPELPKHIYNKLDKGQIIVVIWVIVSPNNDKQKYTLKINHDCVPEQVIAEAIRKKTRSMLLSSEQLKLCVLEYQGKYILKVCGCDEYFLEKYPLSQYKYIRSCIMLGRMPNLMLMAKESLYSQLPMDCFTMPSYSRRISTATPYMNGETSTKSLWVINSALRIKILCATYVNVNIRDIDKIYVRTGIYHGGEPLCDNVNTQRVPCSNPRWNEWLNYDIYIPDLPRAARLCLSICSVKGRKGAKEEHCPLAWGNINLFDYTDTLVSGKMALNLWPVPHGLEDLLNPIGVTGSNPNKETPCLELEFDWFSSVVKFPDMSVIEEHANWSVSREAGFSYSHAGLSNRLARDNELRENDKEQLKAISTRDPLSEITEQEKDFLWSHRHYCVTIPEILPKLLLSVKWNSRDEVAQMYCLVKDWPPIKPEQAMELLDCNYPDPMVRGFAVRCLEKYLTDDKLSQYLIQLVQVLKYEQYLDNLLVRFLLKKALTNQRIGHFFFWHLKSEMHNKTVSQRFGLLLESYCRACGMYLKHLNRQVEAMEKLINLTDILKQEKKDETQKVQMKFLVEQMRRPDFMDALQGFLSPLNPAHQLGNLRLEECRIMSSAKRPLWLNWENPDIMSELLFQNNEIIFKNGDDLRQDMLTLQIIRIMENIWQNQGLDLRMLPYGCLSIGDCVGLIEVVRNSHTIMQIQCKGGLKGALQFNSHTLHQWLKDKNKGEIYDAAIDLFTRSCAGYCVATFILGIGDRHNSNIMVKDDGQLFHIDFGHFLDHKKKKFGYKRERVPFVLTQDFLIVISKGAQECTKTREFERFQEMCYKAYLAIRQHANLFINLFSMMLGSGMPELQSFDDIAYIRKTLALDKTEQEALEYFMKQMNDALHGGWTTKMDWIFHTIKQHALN
Protocol: as §1

[16] = target: T16, FGFR4 (Homo sapiens, UniProt P22455)
T16 construct: purchased Eurofins Discovery (DiscoverX KINOMEscan scanMAX)
Protocol: as §1

[17] = target: T17, ERBB2 (Homo sapiens, UniProt P04626)
T17 construct: purchased Eurofins Discovery (DiscoverX KINOMEscan scanMAX)
Protocol: as §1

[18] = target: T18, KIT (Homo sapiens, UniProt P10721)
T18 construct: purchased Eurofins Discovery (DiscoverX KINOMEscan scanMAX)
Protocol: as §1

[19] = target: T19, PFCDPK1(P.falciparum) (Plasmodium falciparum, UniProt P62344)
T19 construct: purchased Eurofins Discovery (DiscoverX KINOMEscan scanMAX)
T19 sequence (P62344 whole entry): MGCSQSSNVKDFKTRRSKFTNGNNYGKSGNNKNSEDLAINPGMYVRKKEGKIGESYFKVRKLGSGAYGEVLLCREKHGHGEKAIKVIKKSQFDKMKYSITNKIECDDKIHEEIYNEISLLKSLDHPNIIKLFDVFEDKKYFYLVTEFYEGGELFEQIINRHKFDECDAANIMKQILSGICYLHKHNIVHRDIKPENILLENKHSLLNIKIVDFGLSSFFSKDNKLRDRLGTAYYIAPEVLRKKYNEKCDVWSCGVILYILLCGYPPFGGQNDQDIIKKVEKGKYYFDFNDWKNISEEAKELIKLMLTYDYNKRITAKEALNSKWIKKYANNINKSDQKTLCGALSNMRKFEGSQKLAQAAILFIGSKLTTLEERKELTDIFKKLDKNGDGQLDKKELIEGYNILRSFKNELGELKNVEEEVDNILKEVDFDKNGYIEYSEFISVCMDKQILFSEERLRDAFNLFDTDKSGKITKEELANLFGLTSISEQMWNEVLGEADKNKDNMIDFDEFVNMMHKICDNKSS
Protocol: as §1

[20] = target: T20, FLT3(K663Q) (Homo sapiens, UniProt P36888, K663Q)
T20 construct: purchased Eurofins Discovery (DiscoverX KINOMEscan scanMAX)
Protocol: as §1

[21] = target: T21, ERK3 (Homo sapiens, UniProt Q16659)
T21 construct: purchased Eurofins Discovery (DiscoverX KINOMEscan scanMAX)
Protocol: as §1

[22] = target: T22, DYRK2 (Homo sapiens, UniProt Q92630)
T22 construct: purchased Eurofins Discovery (DiscoverX KINOMEscan scanMAX)
Protocol: as §1

[23] = target: T23, CAMK2A (Homo sapiens, UniProt Q9UQM7)
T23 construct: purchased Eurofins Discovery (DiscoverX KINOMEscan scanMAX)
Protocol: as §1

[24] = target: T24, CSNK1A1L (Homo sapiens, UniProt Q8N752)
T24 construct: purchased Eurofins Discovery (DiscoverX KINOMEscan scanMAX)
Protocol: as §1

[25] = target: T25, MYO3B (Homo sapiens, UniProt Q8WXR4)
T25 construct: purchased Eurofins Discovery (DiscoverX KINOMEscan scanMAX)
Protocol: as §1

[26] = target: T26, ABL1(F317I)-nonphosphorylated (Homo sapiens, UniProt P00519, F317I)
T26 construct: purchased Eurofins Discovery (DiscoverX KINOMEscan scanMAX)
T26 sequence (P00519 whole entry F317I): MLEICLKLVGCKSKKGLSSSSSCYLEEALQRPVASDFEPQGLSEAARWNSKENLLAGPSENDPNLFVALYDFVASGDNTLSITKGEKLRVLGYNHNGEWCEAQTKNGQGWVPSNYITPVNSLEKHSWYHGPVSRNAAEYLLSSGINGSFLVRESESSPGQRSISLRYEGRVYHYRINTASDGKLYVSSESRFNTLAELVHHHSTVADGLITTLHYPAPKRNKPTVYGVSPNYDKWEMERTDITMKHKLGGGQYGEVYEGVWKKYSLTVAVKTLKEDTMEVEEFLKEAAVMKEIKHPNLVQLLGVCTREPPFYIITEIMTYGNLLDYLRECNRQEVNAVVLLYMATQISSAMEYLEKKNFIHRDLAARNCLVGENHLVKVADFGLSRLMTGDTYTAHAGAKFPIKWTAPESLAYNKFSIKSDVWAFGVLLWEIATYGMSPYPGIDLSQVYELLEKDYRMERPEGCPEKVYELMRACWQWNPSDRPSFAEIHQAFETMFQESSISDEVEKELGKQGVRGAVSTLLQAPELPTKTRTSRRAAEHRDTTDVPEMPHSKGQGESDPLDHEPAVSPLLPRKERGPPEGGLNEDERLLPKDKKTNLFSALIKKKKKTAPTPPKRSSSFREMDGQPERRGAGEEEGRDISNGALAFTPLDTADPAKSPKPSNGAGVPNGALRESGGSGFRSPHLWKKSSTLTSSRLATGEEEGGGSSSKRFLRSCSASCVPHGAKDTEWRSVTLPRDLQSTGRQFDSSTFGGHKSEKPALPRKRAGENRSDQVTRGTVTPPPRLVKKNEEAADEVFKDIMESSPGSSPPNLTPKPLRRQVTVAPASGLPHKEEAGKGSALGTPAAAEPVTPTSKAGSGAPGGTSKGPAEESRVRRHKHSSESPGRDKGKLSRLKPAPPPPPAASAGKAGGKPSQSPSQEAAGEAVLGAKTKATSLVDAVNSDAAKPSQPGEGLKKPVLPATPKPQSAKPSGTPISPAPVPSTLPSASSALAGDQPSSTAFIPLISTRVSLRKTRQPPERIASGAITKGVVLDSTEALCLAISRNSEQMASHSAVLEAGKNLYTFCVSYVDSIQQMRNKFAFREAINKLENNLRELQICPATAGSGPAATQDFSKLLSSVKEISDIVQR
Protocol: as §1

[27] = target: T27, FLT3 (Homo sapiens, UniProt P36888)
T27 construct: purchased Eurofins Discovery (DiscoverX KINOMEscan scanMAX)
Protocol: as §1

[28] = target: T28, ROCK2 (Homo sapiens, UniProt O75116)
T28 construct: purchased Eurofins Discovery (DiscoverX KINOMEscan scanMAX)
Protocol: as §1

[29] = target: T29, STK36 (Homo sapiens, UniProt Q9NRP7)
T29 construct: purchased Eurofins Discovery (DiscoverX KINOMEscan scanMAX)
Protocol: as §1

[30] = target: T30, PFTK1 (Homo sapiens, UniProt O94921)
T30 construct: purchased Eurofins Discovery (DiscoverX KINOMEscan scanMAX)
Protocol: as §1

[31] = target: T31, RIOK2 (Homo sapiens, UniProt Q9BVS4)
T31 construct: purchased Eurofins Discovery (DiscoverX KINOMEscan scanMAX)
T31 sequence (Q9BVS4 whole entry): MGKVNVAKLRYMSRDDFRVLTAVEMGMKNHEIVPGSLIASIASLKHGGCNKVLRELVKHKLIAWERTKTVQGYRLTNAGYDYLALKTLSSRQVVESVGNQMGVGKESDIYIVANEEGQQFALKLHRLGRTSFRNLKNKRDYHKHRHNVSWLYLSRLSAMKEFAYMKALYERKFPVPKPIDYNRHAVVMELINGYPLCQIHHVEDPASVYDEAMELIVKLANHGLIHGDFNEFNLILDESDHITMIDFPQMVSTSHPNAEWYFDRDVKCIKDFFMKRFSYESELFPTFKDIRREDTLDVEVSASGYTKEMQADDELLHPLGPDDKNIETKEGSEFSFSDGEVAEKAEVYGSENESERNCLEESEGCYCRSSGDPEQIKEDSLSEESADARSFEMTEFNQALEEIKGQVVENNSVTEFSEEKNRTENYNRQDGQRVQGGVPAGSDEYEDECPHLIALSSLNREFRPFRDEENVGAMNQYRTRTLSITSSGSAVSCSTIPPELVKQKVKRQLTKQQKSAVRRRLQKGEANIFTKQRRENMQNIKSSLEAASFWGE
Protocol: as §1

[32] = target: T32, EPHB3 (Homo sapiens, UniProt P54753)
T32 construct: purchased Eurofins Discovery (DiscoverX KINOMEscan scanMAX)
Protocol: as §1

## Cc1cc(Nc2ccc(F)c(CC3(C(=O)N4CCC(F)(CN5CCN(c6ccc(N7CCC(=O)NC7=O)cn6)CC5)CC4)CCN(Cc4cccc(Cl)c4F)CC3)n2)n[nH]1 [SK5527]
[1]; 100 nM
  remaining binding at 0.1 µM: 100%
[1]; 1000 nM
  remaining binding at 1 µM: 100%
[2]; 100 nM
  remaining binding at 0.1 µM: 85%
[2]; 1000 nM
  remaining binding at 1 µM: 77%
[3]; 100 nM
  remaining binding at 0.1 µM: 85%
[3]; 1000 nM
  remaining binding at 1 µM: 100%
[4]; 100 nM
  remaining binding at 0.1 µM: 78%
[4]; 1000 nM
  remaining binding at 1 µM: 90%
[5]; 100 nM
  remaining binding at 0.1 µM: 72%
[5]; 1000 nM
  remaining binding at 1 µM: 100%
[6]; 100 nM
  remaining binding at 0.1 µM: 90%
[6]; 1000 nM
  remaining binding at 1 µM: 95%
[7]; 100 nM
  remaining binding at 0.1 µM: 100%
[7]; 1000 nM
  remaining binding at 1 µM: 92%
[8]; 100 nM
  remaining binding at 0.1 µM: 96%
[8]; 1000 nM
  remaining binding at 1 µM: 100%
[9]; 100 nM
  remaining binding at 0.1 µM: 96%
[9]; 1000 nM
  remaining binding at 1 µM: 84%
[10]; 100 nM
  remaining binding at 0.1 µM: 93%
[10]; 1000 nM
  remaining binding at 1 µM: 68%
[11]; 100 nM
  remaining binding at 0.1 µM: 90%
[11]; 1000 nM
  remaining binding at 1 µM: 54%
[12]; 100 nM
  remaining binding at 0.1 µM: 100%
[12]; 1000 nM
  remaining binding at 1 µM: 93%
[13]; 100 nM
  remaining binding at 0.1 µM: 94%
[13]; 1000 nM
  remaining binding at 1 µM: 86%
[14]; 100 nM
  remaining binding at 0.1 µM: 91%
[14]; 1000 nM
  remaining binding at 1 µM: 66%
[15]; 100 nM
  remaining binding at 0.1 µM: 63%
[15]; 1000 nM
  remaining binding at 1 µM: 100%
[16]; 100 nM
  remaining binding at 0.1 µM: 89%
[16]; 1000 nM
  remaining binding at 1 µM: 89%
[17]; 100 nM
  remaining binding at 0.1 µM: 100%
[17]; 1000 nM
  remaining binding at 1 µM: 100%
[18]; 100 nM
  remaining binding at 0.1 µM: 100%
[18]; 1000 nM
  remaining binding at 1 µM: 61%
[19]; 100 nM
  remaining binding at 0.1 µM: 87%
[19]; 1000 nM
  remaining binding at 1 µM: 81%
[20]; 100 nM
  remaining binding at 0.1 µM: 81%
[20]; 1000 nM
  remaining binding at 1 µM: 79%
[21]; 100 nM
  remaining binding at 0.1 µM: 100%
[21]; 1000 nM
  remaining binding at 1 µM: 94%
[22]; 100 nM
  remaining binding at 0.1 µM: 100%
[22]; 1000 nM
  remaining binding at 1 µM: 80%
[23]; 100 nM
  remaining binding at 0.1 µM: 98%
[23]; 1000 nM
  remaining binding at 1 µM: 100%
[24]; 100 nM
  remaining binding at 0.1 µM: 91%
[24]; 1000 nM
  remaining binding at 1 µM: 87%
[25]; 100 nM
  remaining binding at 0.1 µM: 100%
[25]; 1000 nM
  remaining binding at 1 µM: 100%
[26]; 100 nM
  remaining binding at 0.1 µM: 84%
[26]; 1000 nM
  remaining binding at 1 µM: 74%
[27]; 100 nM
  remaining binding at 0.1 µM: 90%
[27]; 1000 nM
  remaining binding at 1 µM: 77%
[28]; 100 nM
  remaining binding at 0.1 µM: 100%
[28]; 1000 nM
  remaining binding at 1 µM: 45%
[29]; 100 nM
  remaining binding at 0.1 µM: 71%
[29]; 1000 nM
  remaining binding at 1 µM: 94%
[30]; 100 nM
  remaining binding at 0.1 µM: 100%
[30]; 1000 nM
  remaining binding at 1 µM: 95%
[31]; 100 nM
  remaining binding at 0.1 µM: 93%
[31]; 1000 nM
  remaining binding at 1 µM: 64%
[32]; 100 nM
  remaining binding at 0.1 µM: 100%
[32]; 1000 nM
  remaining binding at 1 µM: 100%
